Values quoted from earlier work in patent EP4763224A1, “ANTICANCER AGENT CONTAINING NKT CELL LIGAND-CONTAINING LIPOSOME COMPOSITION” (RIKEN, priority 2023, dated 2025).

Tested on: NKT cells
Conditions: for activity relative to α-galactosylceramide: Patent Documents 1 to 5 and Non-Patent Document 10

For `CCCCCCCCCCCCCCCCCCCCCCCCCC(=O)N[C@@H](CO[C@H]1O[C@H](COC(=O)NC)[C@H](O)[C@H](O)[C@H]1O)[C@H](O)[C@H](O)CCCCCCCCCCCCCC` [RK-163], which “activity relative to α-galactosylceramide” value is on record?
Its value is “several tens times higher”.

Which “activity relative to α-galactosylceramide” value does the source give for `CCCCCCCCCCCCCCCCCCCCCCCCCC(=O)N[C@@H](CO[C@H]1O[C@H](COC(=O)NO)[C@H](O)[C@H](O)[C@H]1O)[C@H](O)[C@H](O)CCCCCCCCCCCCCC` [RCAI-137] here?
Its value is “several tens times higher”.

Which “activity relative to α-galactosylceramide” value does the source give for `CCCCCCCCCCCCCCCCCCCCCCCCCC(=O)N[C@@H](CO[C@H]1O[C@H](COC)[C@H](O)[C@H](O)[C@H]1O)[C@H](O)[C@H](O)CCCCCCCCCCCCCC` [RCAI-61] here?
The value was “several tens times higher”.

For `CCCCCCCCCCCCCCCCCCCCCCCCCC(=O)N[C@@H](CO[C@H]1O[C@H](CO)[C@H](O)[C@H](O)[C@H]1O)[C@H](O)[C@H](O)CCCCCCCCCCCCCC` [α-Galactosylceramide, reference compound], which “artificial activation of NKT cells” value (Non-Patent Document 9) is on record?
The value was “strongly induce artificial activation of NKT cells”.
